According to the NIST ThermoML archive (doi:10.1016/j.jct.2013.11.027):

What was measured:
[1] = xn = mol fraction of the nth substance listed; conditions: 101 kPa, Liquid; for speed of sound: Sing-around technique in a fixed-path interferometer; for mass density: Vibrating tube method
[2] = refractive index (Na D-line) (dimensionless); xn = mol fraction of the nth substance listed; conditions: 101 kPa, Liquid, Standard Abbe refractometry

CCCCCCn1cc[n+](C)c1.F[B-](F)(F)F [1-hexyl-3-methylimidazolium tetrafluoroborate] + C1COCCO1
Conditions | mass density, 298.15 K [kg/m3] | mass density, 308.15 K [kg/m3] | mass density, 318.15 K [kg/m3] | refractive index, 298.15 K | refractive index, 308.15 K | refractive index, 318.15 K | speed of sound, 298.15 K [m/s] | speed of sound, 308.15 K [m/s] | speed of sound, 318.15 K [m/s]
[1], x1 = 0.0956 | 1060.24 | 1050.11 | 1040.21 | – | – | – | 1373.3 | 1332.3 | 1291
[1], x1 = 0.2039 | 1084.24 | 1074.91 | 1065.52 | – | – | – | 1403 | 1364.1 | 1324.8
[1], x1 = 0.2945 | 1098.98 | 1089.94 | 1081.15 | – | – | – | 1422 | 1384.1 | 1346.8
[1], x1 = 0.368 | 1107.75 | 1099.02 | 1090.42 | – | – | – | 1434 | 1398.1 | 1362.7
[1], x1 = 0.4876 | 1119.03 | 1110.69 | 1102.5 | – | – | – | 1450.5 | 1417.6 | 1384.3
[1], x1 = 0.5831 | 1125.92 | 1118.09 | 1110.2 | – | – | – | 1461 | 1430.1 | 1398.7
[1], x1 = 0.6816 | 1131.92 | 1124.09 | 1116.5 | – | – | – | 1470.5 | 1441.5 | 1412.2
[1], x1 = 0.7695 | 1136.19 | 1128.65 | 1121.26 | – | – | – | 1478.1 | 1450.5 | 1423.2
[1], x1 = 0.8594 | 1140.02 | 1132.69 | 1125.9 | – | – | – | 1485.9 | 1459.7 | 1433.3
[1], x1 = 1 | 1145.11 | 1137.71 | 1130.49 | – | – | – | 1496.7 | 1472 | 1447.7
[2], x1 = 0.0956 | – | – | – | 1.4241 | 1.42009 | 1.41587 | – | – | –
[2], x1 = 0.2039 | – | – | – | 1.42717 | 1.42329 | 1.41958 | – | – | –
[2], x1 = 0.2945 | – | – | – | 1.42874 | 1.42525 | 1.42174 | – | – | –
[2], x1 = 0.368 | – | – | – | 1.42944 | 1.42625 | 1.42294 | – | – | –
[2], x1 = 0.4876 | – | – | – | 1.43034 | 1.42727 | 1.42429 | – | – | –
[2], x1 = 0.5831 | – | – | – | 1.43075 | 1.42802 | 1.42519 | – | – | –
[2], x1 = 0.6816 | – | – | – | 1.43106 | 1.42839 | 1.42546 | – | – | –
[2], x1 = 0.7695 | – | – | – | 1.43149 | 1.42861 | 1.42574 | – | – | –
[2], x1 = 0.8594 | – | – | – | 1.43152 | 1.42868 | 1.42604 | – | – | –
[2], x1 = 1 | – | – | – | 1.43167 | 1.4289 | 1.42612 | – | – | –

CCCCCCCC[n+]1ccn(C)c1.F[B-](F)(F)F [1-methyl-3-octylimidazolium tetrafluoroborate] + C1CCOC1
Conditions | mass density, 298.15 K [kg/m3] | mass density, 308.15 K [kg/m3] | mass density, 318.15 K [kg/m3] | refractive index, 298.15 K | refractive index, 308.15 K | refractive index, 318.15 K | speed of sound, 298.15 K [m/s] | speed of sound, 308.15 K [m/s] | speed of sound, 318.15 K [m/s]
[1], x1 = 0.0963 | 944.168 | 934.385 | 924.531 | – | – | – | 1310.8 | 1268.5 | 1226.8
[1], x1 = 0.2018 | 987.574 | 978.487 | 969.198 | – | – | – | 1351.2 | 1313.4 | 1276.2
[1], x1 = 0.312 | 1018.46 | 1010.19 | 1001.93 | – | – | – | 1384.9 | 1350.7 | 1317.1
[1], x1 = 0.4027 | 1037.11 | 1029.2 | 1021.32 | – | – | – | 1406.3 | 1374.4 | 1343
[1], x1 = 0.4917 | 1051.3 | 1043.65 | 1035.82 | – | – | – | 1422.9 | 1392.6 | 1362.8
[1], x1 = 0.6241 | 1067.66 | 1060.32 | 1053.02 | – | – | – | 1442.5 | 1413.9 | 1385.9
[1], x1 = 0.6862 | 1073.96 | 1066.73 | 1059.49 | – | – | – | 1450.2 | 1422.2 | 1394.9
[1], x1 = 0.7615 | 1080.76 | 1073.65 | 1066.46 | – | – | – | 1458.6 | 1431.1 | 1404.5
[1], x1 = 0.8612 | 1088.58 | 1081.55 | 1074.56 | – | – | – | 1470.2 | 1444.2 | 1416.3
[1], x1 = 1 | 1097.61 | 1090.9 | 1084.17 | – | – | – | 1481.1 | 1453.9 | 1428.2
[2], x1 = 0.0963 | – | – | – | 1.41425 | 1.40956 | 1.40529 | – | – | –
[2], x1 = 0.2018 | – | – | – | 1.42039 | 1.4162 | 1.41236 | – | – | –
[2], x1 = 0.312 | – | – | – | 1.42432 | 1.42045 | 1.41715 | – | – | –
[2], x1 = 0.4027 | – | – | – | 1.42658 | 1.4228 | 1.41965 | – | – | –
[2], x1 = 0.4917 | – | – | – | 1.42817 | 1.42451 | 1.42147 | – | – | –
[2], x1 = 0.6241 | – | – | – | 1.42996 | 1.42631 | 1.42348 | – | – | –
[2], x1 = 0.6862 | – | – | – | 1.43062 | 1.42695 | 1.42415 | – | – | –
[2], x1 = 0.7615 | – | – | – | 1.43129 | 1.4277 | 1.42493 | – | – | –
[2], x1 = 0.8612 | – | – | – | 1.43207 | 1.42846 | 1.4258 | – | – | –
[2], x1 = 1 | – | – | – | 1.43296 | 1.42939 | 1.42684 | – | – | –

CCCCCCn1cc[n+](C)c1.F[B-](F)(F)F [1-hexyl-3-methylimidazolium tetrafluoroborate] + C1CCOC1
Conditions | mass density, 298.15 K [kg/m3] | mass density, 308.15 K [kg/m3] | mass density, 318.15 K [kg/m3] | refractive index, 298.15 K | refractive index, 308.15 K | refractive index, 318.15 K | speed of sound, 298.15 K [m/s] | speed of sound, 308.15 K [m/s] | speed of sound, 318.15 K [m/s]
[1], x1 = 0.0989 | 954.559 | 945.509 | 936.105 | – | – | – | 1306.3 | 1263.5 | 1221.2
[1], x1 = 0.2022 | 1005.23 | 996.175 | 987.171 | – | – | – | 1346.4 | 1308 | 1270.1
[1], x1 = 0.3014 | 1040.84 | 1032.56 | 1023.55 | – | – | – | 1379.6 | 1344.7 | 1310.1
[1], x1 = 0.3985 | 1066.08 | 1058.03 | 1049.53 | – | – | – | 1406.7 | 1374.4 | 1342.6
[1], x1 = 0.5109 | 1089.28 | 1081.23 | 1072.72 | – | – | – | 1431.3 | 1401.3 | 1371.8
[1], x1 = 0.5974 | 1103.2 | 1095.15 | 1087.75 | – | – | – | 1447 | 1418.5 | 1390.3
[1], x1 = 0.6974 | 1116.29 | 1109.24 | 1102.04 | – | – | – | 1462.8 | 1435.6 | 1408.7
[1], x1 = 0.8045 | 1128.3 | 1121.25 | 1114.44 | – | – | – | 1477.3 | 1451.1 | 1425.4
[1], x1 = 0.8865 | 1135.58 | 1128.53 | 1121.52 | – | – | – | 1486.9 | 1461.3 | 1436.2
[1], x1 = 1 | 1145.11 | 1137.71 | 1130.49 | – | – | – | 1496.7 | 1472 | 1447.7
[2], x1 = 0.0989 | – | – | – | 1.41416 | 1.41006 | 1.40595 | – | – | –
[2], x1 = 0.2022 | – | – | – | 1.42016 | 1.41657 | 1.41275 | – | – | –
[2], x1 = 0.3014 | – | – | – | 1.42373 | 1.42043 | 1.4171 | – | – | –
[2], x1 = 0.3985 | – | – | – | 1.42607 | 1.42284 | 1.41964 | – | – | –
[2], x1 = 0.5109 | – | – | – | 1.4279 | 1.42491 | 1.42175 | – | – | –
[2], x1 = 0.5974 | – | – | – | 1.42888 | 1.42609 | 1.42305 | – | – | –
[2], x1 = 0.6974 | – | – | – | 1.42974 | 1.427 | 1.42418 | – | – | –
[2], x1 = 0.8045 | – | – | – | 1.4305 | 1.42774 | 1.42511 | – | – | –
[2], x1 = 0.8865 | – | – | – | 1.43095 | 1.42822 | 1.42548 | – | – | –
[2], x1 = 1 | – | – | – | 1.43167 | 1.4289 | 1.42612 | – | – | –
